Data: patent US4758421A (priority 1985, dated 1988)

What was measured:
[1] = tested on: Chinese hamster ovary (CHO) cells; assay: CHO cell survival after 60 minutes exposure (FIG. 4); type: cell-based
Method: Chinese hamster ovary (CHO) cells were cultured in standard cell-culture medium, under log phase growth conditions. Increasing concentrations of either BL--Co--S--FeEDTA or FeEDTA were added to each of two groups of cells. The cells were incubated for 60 minutes at 37° C., and the percent cell survivors was determined conventionally by serial dilution in microtitre plates.

[2] = tested on: CHB235; assay: Binding constants with monoclonal antibody CHB235 by equilibrium dialysis; parameters: species or system mice; settings: specificity of antibody for the antibody-inducing antigen
Method: (§1) Monoclonal antibodies against L--benzyl--EDTA--In were prepared in cooperation with Hybritech, Inc., 11085 Toneyana Road, San Diego, Calif. 92121. Briefly, an L--benzyl--EDTA--In isothiocyanate reagent was reacted with keyhole limpet hemocyanin, which was used to immunize mice. Splenocytes derived from the immunized mice were fused with a suitable tumor cell line, using known somatic cell hybridization techniques. Promising clones were grown in mouse ascites fluid, and the antibodies obtained were purified by ion-exchange chromatography. Two antibodies against L--benzyl--EDTA--In, designated CHA255 and CHB235, were selected.
(§2) The binding constants of the two monoclonal antibodies with L--benzyl--EDTA chelates of several different metals were determined by equilibrium dialysis. The measured binding constants were shown in Table II below, with standard deviations indicated in parentheses.
(§3) Table III gives binding constant data from a second binding affinity study, involving different In--EDTA and In--HED3A chelates.

[3] = tested on: CHA255; assay: Binding constants with monoclonal antibody CHA255 by equilibrium dialysis; parameters: species or system mice; settings: specificity of antibody for the antibody-inducing antigen
Method: as §1, §2, §3

Compound | cell toxicity [1] | binding constant greater than for non-antigen metal chelates [2] | binding constant greater than for non-antigen metal chelates [3]
O=C([O-])CN(CCN(CC(=O)[O-])CC(=O)[O-])CC(=O)[O-].[Fe+3] [FeEDTA] | relatively non-toxic |  | 
L--benzyl--EDTA--In [In (III)] |  | 1 to 4 orders of magnitude | 1 to 4 orders of magnitude
